{
  "source": "patent US8426369B2",
  "about": "“Prevention and treatment of colon cancer” (Rutgers, The State University of New Jersey, priority 2006, dated 2013)",
  "key": {"[1]": {"tested_on": "proliferating cell nuclear antigen (PCNA)", "test": "PCNA immunostaining and labeling index of colon sections", "type": "in vivo, male F344 rats", "conditions": "40 ppm in diet, AOM-treated rats", "experimental": "Total number of ACF/colon and multiple aberrant crypts/focus were counted and the data were analyzed by Student's t-test. The PCNA labeling index (PI) was calculated as the [(number of positive cells)/(total number of cells)]×100 for each field which is averaged to get the PI for each section. The significance of treatment between the groups was analyzed by Student's t-Test.\n(§1) Animals were treated as described in Example 27. Colon samples from each group were harvested at autopsy and fixed in 10% formalin for 24 hr. They were sectioned into 8 to 10 segments, paraffin embedded, and microtomed into 4 μm thick tissue sections. The slides were incubated overnight at room temperature with antibody to proliferating cell nuclear antigen (PCNA) (1:1000 diluted, BD Pharmingen, San Diego, Calif.), iNOS (1:100 diluted, Santa Cruz Biotechnology, Santa Cruz, Calif.), or mucin MUC2 (1:250 diluted, Santa Cruz Biotechnology, Santa Cruz, Calif.).\nThe slides were incubated with the biotinylated secondary antibody, and then with avidin/biotinylated peroxidase complex for 30 min at room temperature (Vector Labs, Burlingame, Calif.), and were incubated with […] (DAB) substrate. The sections were then counter-stained with Modified Harris Hematoxylin. The images were taken randomly at 400× using Zeiss AxioCam HRc camera fitted to a Zeiss Axioskope 2 Plus microscope. […]"}, "iNOS": {"tested_on": "iNOS", "test": "iNOS immunostaining of colon sections", "type": "in vivo, male F344 rats", "conditions": "40 ppm in diet, AOM-treated rats", "experimental": "as §1\nThe slides were incubated with the biotinylated secondary antibody, and then with avidin/biotinylated peroxidase complex for 30 min at room temperature (Vector Labs, Burlingame, Calif.), and were incubated with […] (DAB) substrate. The sections were then counter-stained with Modified Harris Hematoxylin. The images were taken randomly at 400× using Zeiss AxioCam HRc camera fitted to a Zeiss Axioskope 2 Plus microscope. A positive reaction is noted by a reddish brown precipitate in the nucleus for PCNA, in the cytoplasm for iNOS or in the colon crypts for mucin MUC2."}, "COX-2": {"tested_on": "COX-2", "test": "Cytokine-induced COX-2 protein expression in HT-29 cells (Western blot)", "type": "cell-based, human", "experimental": "Human colon carcinoma cell lines HT-29 was obtained from the American Type Culture Collection (Manassas, Va.). The cells were maintained in Dulbecco's modification of Eagle's medium (DMEM) supplemented with 10% FBS and 1% penicillin/streptomycin at 37° C. and 5% CO2. The cytokine mixture, consisting of 10 ng/ml of TNF-α, IFN-γ and LPS, was used to induce iNOS and COX-2, unless otherwise mentioned. The cells were treated with the test compound either alone or in combination with cytokines for different time intervals and harvested for protein or RNA.\n(§2) The cell culture conditions and the reagents used in this example were described in Example 32. Whole cell extracts were collected after the various treatments and analyzed by western blotting. The protein samples were separated on 4-15% SDS-PAGE gels (Biorad, Hercules, Calif.) followed by transfer to a polyvinylidene fluoride membrane. The membranes were blocked with 5% milk in Tris buffer for 1 h and then incubated with the appropriate primary antibody solutions overnight at 4° C. The membranes were washed with Tris buffer, and incubated with horseradish peroxidase conjugated secondary antibody solutions for 1 h at room temperature.\n(§3) The protein bands were visualized using a chemiluminescence based kit from Amersham Biosciences (Buckinghamshire, UK). […]"}, "p21": {"tested_on": "p21", "test": "Western blot of p21 in HT-29 cells", "type": "cell-based, human", "conditions": "HT-29, data not shown", "experimental": "The cells were incubated with different concentrations of pterostilbene for 1, 2 and 3 days, and cell proliferation was estimated by measuring [^3H]thymidine incorporated into DNA. […] In order to evaluate whether pterostilbene potentiates cell cycle arrest or apoptosis in HT-29 cells, the effect of pterostilbene on the proteins regulating the cell cycle and/or apoptosis pathways was examined. Cells treated with pterostilbene for 9 h or 18 h were harvested and protein samples were analyzed by Western blotting (FIG. 8B).\nas §2, §3"}, "iNOS mRNA": {"tested_on": "iNOS mRNA", "test": "Quantitative RT-PCR of cytokine-induced iNOS mRNA in HT-29 cells", "type": "cell-based, human", "conditions": "10 and 30 μM", "experimental": "(§4) The cell culture conditions and the reagents used in this example were described in Example 32. The gene-mediated expression of iNOS and COX-2 are reported to be regulated at both the transcriptional and translational levels. In order to understand the effect of pterostilbene on cytokine-induced expression of proinflammatory enzymes and cytokines, RNA samples after treatment of HT-29 cells with cytokines and/or pterostilbene were analyzed by quantitative RT-PCR for the induction of mRNA levels of iNOS, COX-2, IL-1β, IFN-γ and TNF-α genes.\n(§5) To determine the changes of mRNA levels by pterostilbene and cytokines, quantitative RT-PCR analysis was utilized, as described previously (Lee et al., Mol Pharmacol 2006; 69(6):1840-1848). Briefly, the cells were incubated with compounds for indicated period and the cells were then lysed using Trizol to extract RNA. RNA was reverse transcribed into cDNA using a high capacity cDNA archive kit (Applied Biosystems, Foster City, Calif.). The cDNA was used for quantitative PCR which was run on the ABI Prism […] sequence Detection System. The primers for the iNOS, COX-2, IFN-γ, TNF-α, IL-1β and GAPDH were obtained from Applied Biosystems (Foster City, Calif.)."}, "IL-1β mRNA": {"tested_on": "IL-1β mRNA", "test": "Quantitative RT-PCR of cytokine-induced IL-1β mRNA in HT-29 cells", "type": "cell-based, human", "conditions": "10 and 30 μM", "experimental": "as §4, §5"}, "IκBα": {"tested_on": "IκBα", "test": "Western blot of IκBα after cytokine treatment of HT-29 cells", "type": "cell-based, human", "conditions": "cytokine treatment 15 min", "experimental": "as §2\n(§6) The protein bands were visualized using a chemiluminescence based kit from Amersham Biosciences (Buckinghamshire, UK). The primary antibodies against iNOS, COX-2, IκBα, cyclin D1, c-myc (Santa Cruz Bio-technology, Santa Cruz, Calif.), phospho-STAT3, phospho-Erk1/2, phospho-JNK1/2, phospho-p38, phospho-Akt, phospho-ATF2, phospho-Elk1, PARP (Cell Signaling Technology Inc., Beverly, Mass.) and actin (Sigma, St. Louis, Mo.) and secondary antibodies (Santa Cruz Biotechnology, Santa Cruz, Calif.) were used for probing the abundance of the target protein in the samples.\nThe significance of the JAK-STAT pathway in HT-29 cells was evaluated by probing for phospho-STAT3. Cytokines activated the STAT pathway, as shown by a strong induction of phospho-STAT3."}, "p65 subunit of NF-κB": {"tested_on": "p65 subunit of NF-κB", "test": "Nuclear protein level of p65 subunit of NF-κB in HT-29 cells", "type": "cell-based, human", "conditions": "HT-29, data not shown"}, "ERK1/2": {"tested_on": "ERK1/2", "test": "Western blot of phosphorylated ERK1/2 in cytokine-treated HT-29 cells", "type": "cell-based, human", "experimental": "as §2, §6"}, "p-JNK1/2": {"tested_on": "p-JNK1/2", "test": "Western blot of p-JNK1/2 in cytokine-treated HT-29 cells", "type": "cell-based, human", "experimental": "as §2, §6"}, "ATF2": {"tested_on": "ATF2", "test": "Western blot of cytokine-induced ATF2 phosphorylation in HT-29 cells", "type": "cell-based, human", "conditions": "cytokine-treated HT-29", "experimental": "as §2\nas §6, with “samples. […]” for “samples.”"}},
  "data": [
    {"smiles": "COc1cc(/C=C/c2ccc(O)cc2)cc(OC)c1", "note": "[pterostilbene, (E)-4-(3,5-dimethoxystyryl)phenol]", "values": [
      {"measurement": "PCNA positive cells (%) of colon tissue", "setting": "[1]", "value": "44.2±2.9", "unit": "%"},
      {"measurement": "iNOS staining of ACF with moderate dysplasia", "setting": "iNOS", "value": "weak cytoplasmic staining"},
      {"measurement": "induction of COX-2 by the cytokine mixture", "setting": "COX-2; 30 μM, 9, 12 and 15 h", "value": "markedly blocked"},
      {"measurement": "induction of COX-2 by the cytokine mixture, different concentrations", "setting": "COX-2; different concentrations", "value": "dose-dependent manner"},
      {"measurement": "induction of p21", "setting": "p21", "value": "no induction"},
      {"measurement": "iNOS mRNA induction by the cytokine mixture", "setting": "iNOS mRNA", "value": "strongly inhibited"},
      {"measurement": "IL-1β mRNA induction by the cytokine mixture", "setting": "IL-1β mRNA", "value": "strongly inhibited"},
      {"measurement": "effects on IκBα induced by the cytokines", "setting": "IκBα", "value": "did not block"},
      {"measurement": "nuclear protein levels of the p65 subunit of NF-κB", "setting": "p65 subunit of NF-κB", "value": "remained high and unaltered"},
      {"measurement": "ERK1/2 activation by cytokines", "setting": "ERK1/2", "value": "did not block"},
      {"measurement": "p-JNK1/2 protein levels", "setting": "p-JNK1/2", "value": "only a small effect"},
      {"measurement": "cytokine-induced activation (phosphorylation) of ATF2", "setting": "ATF2", "value": "effective in inhibiting"}
    ]}
  ]
}
